Reference: publication PMC10587169, “Tuning aminopolycarboxylate chelators for efficient complexation of trivalent actinides” (Scientific Reports, 2023)
Where two headings read alike, the source gives them in different places. Marks after values point to notes of the source that are not given here.

What was measured:
[1] = I = 0.16 M NaCl, uncertainties 1σ; cited from earlier work
[2] = cited from earlier work
[3] = Stability constants reported in literature; type: binding; conditions: across the lanthanide series
[4] = cited from earlier work; remark: listed apart in the source
[5] = Potentiometric titration, acid dissociation constants; type: physicochemical; conditions: aqueous 2.0 M (Na+/H+)ClO4 electrolyte solution
Protocol: All potentiometric titrations were run using a Mettler Toledo T90 autotitrator equipped with an Orion Ross Semi-micro glass electrode with the junction stabilization solution changed to 5.0 M NaCl to prevent precipitation with perchlorate media. All titrations were performed under a hydrated nitrogen atmosphere. The forward titration measurements (acidic titrand, basic titrant) of H4octapa in nitrate electrolyte medium were performed as described previously due to the limited solubility of this ligand in a 2 M (Na^+/H^+)ClO4 medium. Acid dissociation constants of H4octapa in perchlorate electrolyte medium were also determined by titrating in reverse (basic titrand, acidic titrant) to alleviate the solubility concerns. Titrations of H4pypa-peg were performed in reduced-volume glass titration cups (10 mL nominal) due to the limited supply of this ligand. All potentiometric titrations were run in triplicate. The choice of using p[H^+] was explained in Heathman et al.[15], and the calibration of the p[H^+] scale utilized Gran analysis through titration of a strong acid with the base used in the potentiometric titrations[29]–[31]. Potentiometric titration data was modeled and analyzed using Hyperquad2013 to determine acid dissociation and metal complexation stability constants[32],[33].
Changes in hydrogen ion concentration were monitored using a glass electrode for a solution of H4octapa as either NaOH or HClO4 were titrated into the solutions. […] The experimental potentiometric curve collected for a forward titration of H4octapa in (Na^+/H^+)NO3 is presented in Fig. 3A, alongside the distribution curves for the identified HnL species. Following those studies, the acid/base conditions were reversed and octapa^4− was titrated in 2.0 M (Na^+/H^+)ClO4 using HClO4 (SI Figure S7). The potentiometric curves are well respresented by five proton dissociation equilibria. The calculated equilibrium constants correspond with the protonation reactions for two aliphatic amines, two pyridine nitrogens, and one carboxylate group with the protonation sequence described by Eq. (2). The acid dissociation constants (pKa = − log10Ka) for H4octapa are reported in Table 1 alongside previously reported values in the literature.
The experimental potentiometric titration curve and the distribution curves for the associated HnL species for H4pypa-peg are presented in Fig. 3B. […] For comparison, the protonation equilibria of H4edta were also studied in 2.0 M (Na^+/H^+)ClO4. The pKa values for H4edta are listed in Table 2 and collected potentiometric titration curves (forward and reverse) are presented in SI Figure S8. For H4pypa-peg coordination pocket the protonation of H9L^5+, H7L^3+, and H6L^2+ cannot be characterized using a glass electrode. The H6L^2+ species likely represents a protonated carboxylate group, while H5L^+ and H4L may describe the pyridinecarboxylate nitrogens. The equilibrium involving H3L^− likely describes the dissociation of the protonated pyridine nitrogen, while the two most basic species in this ligand (HL^3− and H2L^2−) are likely the bridging amines in the H4pypa-peg backbone. Equation (3) describes the protonation sequence for H4pypa-peg.3 H10-aL^+6-a⇆H9-aL^+5-a+H^+Ka=H^+·H9-aL^+5-a/H10-aL^+6-aa=1…9

[6] = Spectrophotometric titration; type: binding; conditions: spectrophotometrically determined in 2.0 M (Na+/H+)ClO4, 20 °C
From the text: Changes in the optical absorption characteristics of Nd^3+ were monitored using a Cary 6000i UV/Vis–NIR Spectrometer (Agilent) using 1 cm semimicro quartz cuvettes (Starna) in double-beam mode, where the ^4I9/2 → ^4G5/2, ^2G7/2 transitions[34] were monitored between 560 and 605 nm with a 0.075 nm interval and 1.0 nm spectral bandwidth. Changes in the optical absorption characteristics of ^243Am^3+ and ^248Cm^3+ were monitored using a Flame-S-VIS–NIR-ES spectrometer coupled to a DH-2000-BAL dual-mode light source (Ocean Optics) with a single 1 cm semimicro quartz cuvette (Starna). The light source and spectrometer were optically coupled to the CUV sample (Ocean Optics) holder using 2 m fiberoptics (200 μm) and the parameters for acquisition were 0.369 nm interval and 1000 scans averaged with an integration time/scan 1.08 ms (total acquisition time ~ 1 s). The complexation of Am^3+ with the ligands was monitored in the 495–525 nm spectral region, looking at the ^7F0′ → ^5L6′ transition[23],[35]. For Cm^3+, ligand complexation was monitored in the 365–410 nm spectral region, looking at the ^8S7/2 → ^2Ji (i = {15}, {13,9}, {11,17}) manifold transitions[24],[25],[36]. Changes in aqueous p[H^+] were monitored throughout each titration step using a Gran-calibrated Orion Ross Semi-micro glass electrode. Baseline correction was applied to all datasets and was typically a simple linear subtraction. However, in the case of the ^248Cm/H4pypa-peg spectra, the tail end of the ligand absorption overlapped the hypersensitive Cm peaks. In this case the background correction was applied using a 5th-order empirical polynomial. Finally, the spectroscopic data was analyzed using the HypSpec software package[33],[37]. Full details of the titrand and titrant solutions for each titration are included in the Supplemental Information.
The coordination of Nd^3+ by H4octapa and H4pypa-peg was also studied using spectroscopic methods. Figures 5A, B show the collected spectrophotometric signatures for H4octapa and H4pypa-peg, respectively.4 M^3++L^4-⇆ML^-β101=ML^-/[M^3+]L^4- 5 M^3++H^++L^4-⇆MHLaqβ111=MHLaq/[M^3+L^4-H^+]
Optical absorption features of ^4I9/2 → ^4G5/2, ^2G7/2 transitions for Nd^3+ are perturbed due to the introduction of increasing quantities of complexants, resulting in characteristic red-shifted changes. In Fig. 5A a broad absorption band with λmax = 577 nm is distinctly different to the optical absorption of free Nd^3+ metal in Fig. 5B. The differences can be attributed to the nitrate complexation of Nd^3+ as the spectrophotometric titration with H4octapa was performed in 2.0 M (Na^+/H^+)NO3. […] The HypSpec interpretation of the Nd/pypa-peg titration points to the presence of three absorbing species: Nd^3+, NdHL(aq), and NdL^−. The conditional stability constants obtained spectroscopically are listed in Table 3, showing good agreement with the stability constants determined using potentiometry. The complex stability constants for structurally similar APC ligands found in the literature are also presented (H4pypa[18] and H4py4pa[57]).
2. Spectrophotometric titration parameters
Nd3+: The titrand solution consisting of 1.980 mL of 7.57 mM Nd(ClO4)3 at p[H+] = 1.61 was blended with 1.965 mL of titrant solution containing 7.62 mM Nd3+, 18.57 mM H4octapa, […]
Am3+: The titrand solution consisting of 0.842 mL of 0.810 mM Am(ClO4)3 at p[H+] =1.66 was blended with 0.811 mL of titrant solution containing 0.815 mM Am3+, 8.95 mM H4octapa, at p[H+] ≈ 5.0 – 6.0.
Nd3+: The titrand solution consisting of 0.801 mL of 9.82 mM Nd(ClO4)3 at p[H+] = 1.61 was blended with 1.176 mL of titrant solution containing 9.91 mM Nd3+ and 24.58 mM H4pypa-peg in with p[H+] ≈ 3.0 – 4.0.
Am3+: The titrand solution consisting of 0.806 mL of 0.791 mM Am(ClO4)3 at p[H+] = 1.41 was blended with 0.787 mL of titrant solution containing 0.801 mM Am3+ and 15.09 mM H4pypa-peg at p[H+] ≈ 5 – 6.
Cm3+: The titrand solution consist ing of 0.809 mL of 1.00 mM Cm(ClO4)3 at p[H+] = 1.34 was […]

[7] = in-batch spectrophotometric competition at 25 °C, not evaluated at constant I = 0.16 M NaCl
[8] = potentiometric titrations, I = 0.16 M NaCl, uncertainties 1σ

SMILES: O=C(O)CN(Cc1cccc(CN(CC(=O)O)Cc2cccc(C(=O)O)n2)n1)Cc1cccc(C(=O)O)n1 [H4pypa]
- pKa H2L2- [1]: 6.78 (1)
- pKa H3L- [1]: 3.69 (1)
- pKa H4L(aq) [1]: 3.02 (1)
- pKa H5L+ [1]: 2.23 (2)
- pKa H6L2+ [1]: 2.06 (6)
- pKa H7L3+ [1]: 1.70 (2)
- pKa HL3- [1]: 7.78 (1)
- logK111, Lu [2, 7]: 3.60 (6)*
- logβ101 (ML), Lu [2, 8]: 22.20 (2)
- cross-lanthanide stability increase for ML- complexes [3]: 1000 fold
- logK111, La [4, 7]: 3.24 (5)*
- logβ101 (ML), La [4, 8]: 19.54 (2)

SMILES: O=C(O)CN(CCN(CC(=O)O)CC(=O)O)CC(=O)O [H4edta, ethylenediamine-N,N,N′,N′-tetraacetic acid]
- pKa ([5]; I = 2.0 M (Na+/H+)ClO4 (Table 2), read-out: pKa H2L2-): 6.23
- pKa ([5]; I = 2.0 M (Na+/H+)ClO4 (Table 2), read-out: pKa H3L-): 2.48
- pKa ([5]; I = 2.0 M (Na+/H+)ClO4 (Table 2), read-out: pKa H4L(aq)): 2.08
- pKa ([5]; I = 2.0 M (Na+/H+)ClO4 (Table 2), read-out: pKa HL3-): 8.71
- pKa ([5]; I = 2.0 M (Na+/H+)ClO4 at 20.0 °C, read-out: pKa H2L species): 6.45
- pKa ([5]; I = 2.0 M (Na+/H+)ClO4 at 20.0 °C, read-out: pKa H3L species): 2.49
- pKa ([5]; I = 2.0 M (Na+/H+)ClO4 at 20.0 °C, read-out: pKa H4L species): 2.02
- pKa ([5]; I = 2.0 M (Na+/H+)ClO4 at 20.0 °C, read-out: pKa HL species): 8.81
- logβ101 (ML), Nd [6]: 14.66(1)
